Measured values taken from patent US20240228510A1, “KRAS G12C INHIBITORS” (Mirati Therapeutics, Inc., priority 2021, published 2024).

System: KRas G12C
Test: Inhibition of KRas G12C-mediated pERK in H358 cells (Phospho-ERK In-Cell Western)
Format: cell-based
Details: Homo sapiens; NCI-H358 cells; 3 hours compound; pERK(Thr202/Tyr204) normalized to GAPDH; 4 parameter fit
Description: The cellular inhibition of KRAs G12C by exemplary compounds of the present invention was determined by measuring the amount of a downstream marker of KRas activity, phosphorylated ERK (“Phospho-ERK”).
NCI-H358 cells (ATCC CRL-5807) express KRas G12C and were grown in RPMI medium supplemented with 10% fetal bovine serum, penicillin/streptomycin and 10 mM HEPES. Cells were plated in poly-D-Lysine coated 96-well plates at a concentration of 50,000 cells/well and allowed to attach for 8-12 hours. Diluted compounds were then added at a final concentration of 0.5% DMSO. After 3 hours, the medium was removed, 150 μL of 4% formaldehyde was added and the plates were incubated for 20 minutes. The plates were washed with PBS, and permeabilized using 150 μL of ice cold 100% methanol for 10 minutes. Non-specific antibody binding to the plates was blocked using 100 μL Licor Blocking Buffer (Li-Cor Biotechnology, Lincoln NE) for 1 hour at room temperature. Positive control samples and samples lacking cells were parallel processed with test samples as standards.
The amount Phospho-ERK was determined using an antibody specific for the phosphorylated form of ERK and compared to the amount of GAPDH. Primary antibodies used for detection were added as follows: Phospho-ERK (Cell Signaling cs9101) diluted 1:500 and GAPDH (Millipore MAB374) diluted 1:5000 in Licor block+0.05% Tween 20. The plates were incubated for 2 hours at room temperature. The plates were washed with PBS+0.05% Tween 20.
Secondary antibodies used to visualize primary antibodies were added as follows: Anti-rabbit-680 diluted 1:1000 and Anti-mouse-800 diluted 1:1000 in Licor Block+0.05% Tween 20 and incubated for 1 hour at room temperature. The plates were washed with PBS+0.05% Tween 20. A 100 μL aliquot of PBS was added to each well and the plates were read on a LICOR AERIUS plate reader.
The pERK(Thr202/Tyr204) signal was normalized with the GAPDH signal and percent of DMSO control values were calculated. IC50 values were generated using a 4 parameter fit of the dose response curve.

Compound | IC50
C=CC(=O)N1CCN(c2ccnc3c(F)c(-c4cccc5ccc(F)c(Cl)c45)ncc23)CC1 [Example 1, 1-(4-(7-(8-chloro-7-fluoronaphthalen-1-yl)-8-fluoro-1,6-naphthyridin-4-yl)piperazin-1-yl)prop-2-en-1-one] | 2740 nM
C=CC(=O)N1CCN(c2c(F)cnc3c(F)c(-c4cccc5ccc(F)c(Cl)c45)ncc23)CC1 [Example 2, 1-(4-(7-(8-chloro-7-fluoronaphthalen-1-yl)-3,8-difluoro-1,6-naphthyridin-4-yl)piperazin-1-yl)prop-2-en-1-one] | 3050 nM
C#Cc1cccc2cccc(-c3ncc4c(N5C[C@@H]6[C@H]5CCN6C(=O)C=C)c(Cl)cnc4c3F)c12 [Example 3, 1-((1R,5R)-6-(3-chloro-7-(8-ethynylnaphthalen-1-yl)-8-fluoro-1,6-naphthyridin-4-yl)-2,6-diazabicyclo[3.2.0]heptan-2-yl)prop-2-en-1-one] | 75 nM
C=CC(=O)N1CC[C@@H]2[C@H]1CN2c1c(Cl)cnc2c(F)c(-c3cccc4ccc(F)c(Cl)c34)ncc12 [Example 4, 1-((1R,5R)-6-(3-chloro-7-(8-chloro-7-fluoronaphthalen-1-yl)-8-fluoro-1,6-naphthyridin-4-yl)-2,6-diazabicyclo[3.2.0]heptan-2-yl)prop-2-en-1-one] | 169 nM
C=CC(=O)N1CCN(c2c(C)cnc3c(F)c(-c4cccc5ccc(F)c(Cl)c45)ncc23)CC1 [Example 5, 1-(4-(7-(8-chloro-7-fluoronaphthalen-1-yl)-8-fluoro-3-methyl-1,6-naphthyridin-4-yl)piperazin-1-yl)prop-2-en-1-one] | 5000 nM
C#Cc1c(F)ccc2cccc(-c3ncc4c(N5C[C@@H]6[C@H]5CCN6C(=O)C=C)c(OC)cnc4c3F)c12 [Example 6, 1-((1R,5R)-6-(7-(8-ethynyl-7-fluoronaphthalen-1-yl)-8-fluoro-3-methoxy-1,6-naphthyridin-4-yl)-2,6-diazabicyclo[3.2.0]heptan-2-yl)prop-2-en-1-one] | 22 nM
C=CC(=O)N1CCN(c2c(Cl)cnc3c(F)c(-c4cccc5ccc(F)c(Cl)c45)ncc23)CC1 [Example 7, 1-(4-(3-chloro-7-(8-chloro-7-fluoronaphthalen-1-yl)-8-fluoro-1,6-naphthyridin-4-yl)piperazin-1-yl)prop-2-en-1-one] | 5910 nM
C#Cc1cccc2cc(O)cc(-c3ncc4c(N5C[C@@H]6[C@H]5CCN6C(=O)C=C)c(Cl)cnc4c3F)c12 [Example 8, 1-((1R,5R)-6-(3-chloro-7-(8-ethynyl-3-hydroxynaphthalen-1-yl)-8-fluoro-1,6-naphthyridin-4-yl)-2,6-diazabicyclo[3.2.0]heptan-2-yl)prop-2-en-1-one] | 1 nM
C=CC(=O)N1CCN(c2c(OC)cnc3c(F)c(-c4cccc5ccc(F)c(Cl)c45)ncc23)CC1 [Example 9, 1-(4-(7-(8-chloro-7-fluoronaphthalen-1-yl)-8-fluoro-3-methoxy-1,6-naphthyridin-4-yl)piperazin-1-yl)prop-2-en-1-one] | 9000 nM
C=CC(=O)N1CCN(c2c(C#N)cnc3c(F)c(-c4cccc5ccc(F)c(Cl)c45)ncc23)CC1 [Example 10, 4-(4-acryloylpiperazin-1-yl)-7-(8-chloro-7-fluoronaphthalen-1-yl)-8-fluoro-1,6-naphthyridine-3-carbonitrile] | 3680 nM
C#Cc1c(F)ccc2cccc(-c3ncc4c(N5C[C@@H]6[C@H]5CCN6C(=O)C=C)ccnc4c3F)c12 [Example 11, 1-((1R,5R)-6-(7-(8-ethynyl-7-fluoronaphthalen-1-yl)-8-fluoro-1,6-naphthyridin-4-yl)-2,6-diazabicyclo[3.2.0]heptan-2-yl)prop-2-en-1-one] | 17 nM
C#Cc1c(F)ccc2cccc(-c3ncc4c(N5C[C@@H]6[C@H]5CCN6C(=O)C=C)c(C#N)cnc4c3F)c12 [Example 12, 4-((1R,5R)-2-acryloyl-2,6-diazabicyclo[3.2.0]heptan-6-yl)-7-(8-ethynyl-7-fluoronaphthalen-1-yl)-8-fluoro-1,6-naphthyridine-3-carbonitrile] | 24 nM
C#Cc1c(F)ccc2cccc(-c3ncc4c(N5C[C@@H]6[C@H]5CCN6C(=O)C=C)c(Cl)cnc4c3F)c12 [Example 13, 1-((1R,5R)-6-(3-chloro-7-(8-ethynyl-7-fluoronaphthalen-1-yl)-8-fluoro-1,6-naphthyridin-4-yl)-2,6-diazabicyclo[3.2.0]heptan-2-yl)prop-2-en-1-one] | 31 nM
C#Cc1c(F)ccc2cccc(-c3ncc4c(N5C[C@@H]6[C@H]5CCN6C(=O)C=C)cc(C)nc4c3F)c12 [Example 14, 1-((1R,5R)-6-(7-(8-ethynyl-7-fluoronaphthalen-1-yl)-8-fluoro-2-methyl-1,6-naphthyridin-4-yl)-2,6-diazabicyclo[3.2.0]heptan-2-yl)prop-2-en-1-one] | 21 nM
C#Cc1c(F)ccc2cccc(-c3ncc4c(N5[C@@H]6CCN(C(=O)C=C)[C@@H]6[C@@H]5C)cc(OC)nc4c3F)c12 [Example 15, 1-((1R,5R,7S)-6-(7-(8-ethynyl-7-fluoronaphthalen-1-yl)-8-fluoro-2-methoxy-1,6-naphthyridin-4-yl)-7-methyl-2,6-diazabicyclo[3.2.0]heptan-2-yl)prop-2-en-1-one] | 1440 nM
C#Cc1c(F)ccc2cccc(-c3ncc4c(N5[C@@H]6CCN(C(=O)C=C)[C@@H]6[C@@H]5C)cc(C)nc4c3F)c12 [Example 16, 1-((1R,5R,7S)-6-(7-(8-ethynyl-7-fluoronaphthalen-1-yl)-8-fluoro-2-methyl-1,6-naphthyridin-4-yl)-7-methyl-2,6-diazabicyclo[3.2.0]heptan-2-yl)prop-2-en-1-one] | 73 nM
C=CC(=O)N1CC[C@@H]2[C@H]1CN2c1snc2c(F)c(-c3cccc4ccc(F)c(Cl)c34)ncc12 [Example 17, 1-((1R,5R)-6-(6-(8-chloro-7-fluoronaphthalen-1-yl)-7-fluoroisothiazolo[4,3-c]pyridin-3-yl)-2,6-diazabicyclo[3.2.0]heptan-2-yl)prop-2-en-1-one] | 6000 nM
C#Cc1cccc2cc(O)cc(-c3ncc4c(N5C[C@@H]6[C@H]5CCN6C(=O)C=C)snc4c3F)c12 [Example 18, 1-((1R,5R)-6-(6-(8-ethynyl-3-hydroxynaphthalen-1-yl)-7-fluoroisothiazolo[4,3-c]pyridin-3-yl)-2,6-diazabicyclo[3.2.0]heptan-2-yl)prop-2-en-1-one] | 14 nM
C#Cc1cccc2cccc(-c3ncc4c(N5C[C@@H]6[C@H]5CCN6C(=O)C=C)snc4c3F)c12 [Example 19, 1-((1R,5R)-6-(6-(8-ethynylnaphthalen-1-yl)-7-fluoroisothiazolo[4,3-c]pyridin-3-yl)-2,6-diazabicyclo[3.2.0]heptan-2-yl)prop-2-en-1-one] | 748 nM
C=CC(=O)N1CC2(C1)CN(c1snc3c(F)c(-c4cccc5ccc(F)c(Cl)c45)ncc13)C2 [Example 20, 1-(6-(6-(8-chloro-7-fluoronaphthalen-1-yl)-7-fluoroisothiazolo[4,3-c]pyridin-3-yl)-2,6-diazaspiro[3.3]heptan-2-yl)prop-2-en-1-one] | 7000 nM
C=CC(=O)N(C)C1CN(c2snc3c(F)c(-c4cccc5ccc(F)c(Cl)c45)ncc23)C1 [Example 21, N-(1-(6-(8-chloro-7-fluoronaphthalen-1-yl)-7-fluoroisothiazolo[4,3-c]pyridin-3-yl)azetidin-3-yl)-N-methylacrylamide] | 9000 nM
C=CC(=O)N1CC2(CCN(c3snc4c(F)c(-c5cccc6ccc(F)c(Cl)c56)ncc34)CC2)C1 [Example 22, 1-(7-(6-(8-chloro-7-fluoronaphthalen-1-yl)-7-fluoroisothiazolo[4,3-c]pyridin-3-yl)-2,7-diazaspiro[3.5]nonan-2-yl)prop-2-en-1-one] | 8000 nM
